PMC3004914, “Classification of Drugs Based on Properties of Sodium Channel Inhibition: A Comparative Automated Patch-Clamp Study” (PLoS ONE, 2010)
Like-named read-outs stand apart in the source and are kept apart here.

Tests used:
[1] = human plasma, cited from earlier work
[2] = target: T1, rNav1.2 sodium channels (HEK-293 cells) (Rattus norvegicus, UniProt P04775); assay: steady-state inactivation protocol (availability curves), QPatch automated patch-clamp; type: cell-based
Text: (§1) A)–D) Peak amplitudes of evoked currents (5 Hz trains of 5 depolarizations from −90 to −10 mV) are plotted against time. Black dots: Control. Grey dots: Drug perfusion. […] Calculation of properties of inhibition is illustrated. […] E) Calculation of Kr and Ki values from steady-state availability curves.
Standard steady-state inactivation protocols were used to measure the shift of steady-state availability curve caused by the drugs. Currents were evoked by a 10 ms test pulse to −10 mV, preceded by 400 ms pre-pulses from −150 to −30 mV. […] Because the inhibition at hyperpolarized potentials (Inh−150), and the shift of the availability curves (ΔV1/2) are both concentration-dependent properties, we calculated affinities to hyperpolarized and depolarized states (“resting state affinity”: Kr, and “inactivated state affinity”: Ki), which, on the other hand, are concentration-independent characteristics of individual drugs. Calculation of Kr and Ki values are described in Materials and Methods, and illustrated in Figure 1E. State-dependence (SD) was quantified as the ratio Kr/Ki.
(§2) HEK-293 cells stably expressing rNav1.2 sodium channels were obtained from NeuroSearch (Ballerup, Denmark).
(§3) Cells were automatically prepared for application to the chips (centrifuged and washed twice, then resuspended in extracellular solution) as described previously. Composition of the extracellular solution was: (in mM): 140 NaCl, 3 KCl, 1 CaCl2, 1 MgCl2, 0.1 CdCl2, 20 TEA-Cl, 5 HEPES, adjusted to pH 7.3, Osmolality: ∼320 mOsm.
(§4) All electrophysiological experiments were conducted on Qpatch-16 or QPatch HT instruments using QPlate™ chips. For a detailed description of the instrument and the patch-clamp chips see [37], [38]. Data were sampled at a frequency of 25 kHz and filtered at 5 kHz. […] The amplifier was controlled and the data were collected by the Sophion QPatch client software. For initial data analysis the QPatch software was used. Built-in amplifiers provide an improved method for series resistance compensation. Leak subtraction (based on a standard P/n protocol) was used to subtract the capacitive component of currents.
Inactivated affinity (Ki) values were calculated assuming a simple four-state model of drug binding and channel gating, using two separate methods: (1) from the shift of the availability curve (ΔV1/2), the slope of the Boltzmann fit of the availability curve (k) and Kr, using the formula described by Bean, Cohen and Tsien (Ki−ΔV1/2; see Figure 1E), or (2) from the apparent affinity (Kapp) at a certain pre-pulse potential, which was calculated from the inhibition (e.g. Inh−60) as described above, and the availability (h) at the same pre-pulse potential, using the formula from Kuo and Bean (Figure 1E). […] (Arithmetic means and SEM values are given in Results S7.)

[3] = target: T1, rNav1.2 sodium channels (HEK-293 cells); assay: 5 Hz train protocol, QPatch automated patch-clamp; type: cell-based; conditions: for τoff: 500 s assigned where irreversible; for Rev (reversibility): Rev = A5/A1 after washout; for potency estimated from few doses: −90 mV, read-out: IC50;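 on UD (use-dependence of the inhibition): UD = (A3/A4)/(A1/A2) as ratios of peak amplitudes from Figure 1A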
Text: The dynamics of the onset and offset of inhibition was monitored using 5 Hz trains of five depolarizing pulses from a holding potential of −90 mV to −10 mV. The trains were repeated every 20 s. Drugs were applied after 10 control trains and 10 trains were delivered in the presence of the drug. The drug was then washed out, and the 10 trains were repeated.
We measured inhibition (Inh; from which we calculated IC50 values as described in Materials and Methods), reversibility of inhibition (Rev) and use-dependence (UD), as well as time constant of onset (τon) and offset (τoff). The calculation of IC50, quantification of Rev and UD, and the determination of time constants are illustrated in Figure 1A. Because τon should be concentration-dependent if we assume a single binding reaction, we excluded it from the analyses. […] Comments on the interpretation of these properties (Rev, […] and UD) are in Results S1.
as §1, §2, §3, §4
From this protocol we extracted five parameters, as illustrated in Figure 1A. We calculated inhibition of a single “cc” concentration: Inh = (amplitudectr – amplitudedrug)/amplitudectr.

[4] = HEK293, 100 μM, −90 mV holding potential, 5 Hz train, read-out: Inh (inhibited fraction)
[5] = HEK293, calculated from Inh at single concentration 100 μM, 5 Hz train
[6] = HEK293, −90 mV holding potential, 5 Hz train, read-out: Inh (inhibited fraction)
[7] = HEK293, calculated from Inh at single concentration 300 μM, 5 Hz train

T1 sequence (P04775 whole entry, the tested form may be a part): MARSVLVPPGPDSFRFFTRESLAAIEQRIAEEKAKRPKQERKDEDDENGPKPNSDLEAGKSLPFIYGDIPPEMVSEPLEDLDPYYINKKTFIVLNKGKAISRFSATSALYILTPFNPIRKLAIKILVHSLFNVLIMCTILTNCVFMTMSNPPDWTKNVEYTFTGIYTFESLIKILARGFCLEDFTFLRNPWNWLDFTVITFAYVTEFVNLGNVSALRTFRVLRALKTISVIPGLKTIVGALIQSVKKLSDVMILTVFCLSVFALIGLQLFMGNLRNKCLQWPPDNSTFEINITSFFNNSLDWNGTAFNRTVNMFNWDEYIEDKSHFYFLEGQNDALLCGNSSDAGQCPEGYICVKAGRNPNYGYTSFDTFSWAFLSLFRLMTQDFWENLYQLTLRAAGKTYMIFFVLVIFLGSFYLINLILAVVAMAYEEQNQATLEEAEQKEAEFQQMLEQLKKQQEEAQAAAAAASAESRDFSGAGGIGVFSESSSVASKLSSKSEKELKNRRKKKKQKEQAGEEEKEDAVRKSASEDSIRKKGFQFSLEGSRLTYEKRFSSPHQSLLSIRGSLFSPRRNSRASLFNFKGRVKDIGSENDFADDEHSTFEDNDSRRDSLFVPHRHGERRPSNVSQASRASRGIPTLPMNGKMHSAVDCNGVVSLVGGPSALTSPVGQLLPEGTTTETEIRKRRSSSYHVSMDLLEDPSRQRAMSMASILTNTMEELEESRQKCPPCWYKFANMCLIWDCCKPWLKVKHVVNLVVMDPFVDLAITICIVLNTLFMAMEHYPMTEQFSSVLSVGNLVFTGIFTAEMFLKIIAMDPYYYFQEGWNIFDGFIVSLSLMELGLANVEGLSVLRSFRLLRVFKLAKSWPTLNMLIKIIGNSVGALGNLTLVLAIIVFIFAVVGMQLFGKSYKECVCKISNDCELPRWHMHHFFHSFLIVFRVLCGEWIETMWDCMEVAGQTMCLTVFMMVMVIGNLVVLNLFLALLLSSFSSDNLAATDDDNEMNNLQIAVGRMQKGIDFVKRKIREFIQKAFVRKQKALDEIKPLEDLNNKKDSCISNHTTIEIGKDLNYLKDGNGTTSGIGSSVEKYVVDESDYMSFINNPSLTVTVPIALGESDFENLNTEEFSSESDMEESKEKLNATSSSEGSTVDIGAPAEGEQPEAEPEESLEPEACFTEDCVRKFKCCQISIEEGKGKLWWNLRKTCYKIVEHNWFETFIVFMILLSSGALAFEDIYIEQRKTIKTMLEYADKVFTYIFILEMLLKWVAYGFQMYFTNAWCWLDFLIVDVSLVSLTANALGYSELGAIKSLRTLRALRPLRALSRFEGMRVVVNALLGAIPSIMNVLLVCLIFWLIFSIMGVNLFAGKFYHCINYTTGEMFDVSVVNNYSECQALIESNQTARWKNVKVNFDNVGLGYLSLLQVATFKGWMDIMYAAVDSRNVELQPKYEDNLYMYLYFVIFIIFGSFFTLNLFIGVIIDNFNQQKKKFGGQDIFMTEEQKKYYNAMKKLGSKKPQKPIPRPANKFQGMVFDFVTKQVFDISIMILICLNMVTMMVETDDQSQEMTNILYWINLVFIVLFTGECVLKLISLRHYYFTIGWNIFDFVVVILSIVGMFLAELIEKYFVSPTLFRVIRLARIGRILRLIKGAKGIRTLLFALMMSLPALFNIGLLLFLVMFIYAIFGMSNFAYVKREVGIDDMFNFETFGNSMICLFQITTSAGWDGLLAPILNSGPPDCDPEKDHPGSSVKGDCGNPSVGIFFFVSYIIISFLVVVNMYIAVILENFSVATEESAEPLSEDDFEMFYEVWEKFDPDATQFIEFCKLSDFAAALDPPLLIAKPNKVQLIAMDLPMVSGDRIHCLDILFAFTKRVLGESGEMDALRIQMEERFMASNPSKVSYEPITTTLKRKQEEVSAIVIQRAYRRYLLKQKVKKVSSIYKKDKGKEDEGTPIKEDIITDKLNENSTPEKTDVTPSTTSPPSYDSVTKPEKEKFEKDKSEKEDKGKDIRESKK

In the case of CN1CCN2c3ccccc3Cc3ccccc3C2C1 (stereo not shown) [MIA, Mianserin], the plasma conc. ([1]; as printed in each cell) is given as 0.01 [47] µg/ml and the plasma conc. ([1]; as printed in the µg/ml cell) is given as 0.037 µM.
In the case of CNCCCC12CCC(c3ccccc31)c1ccccc12 [MPR, Maprotiline], the plasma conc. ([1]; as printed in each cell) is given as 0.25 [45] µg/ml and the plasma conc. ([1]; as printed in the µg/ml cell) is given as 0.797 µM.
Work on CN1CCN2c3ncccc3Cc3ccccc3C2C1 (stereo not shown) [MRZ, Mirtazapine] yielded an inhibition at 100 µM ([2]; HEK293, 100 µM, read-out: Inh (inhibited fraction) at holding potential −150 mV) of 24%, a Ki ([2]; arithmetic mean, 100 µM, read-out: Ki-Kapp arith) of 7.94 µM and a Ki ([2]; arithmetic mean, 100 µM, read-out: Ki-ΔV1/2 arith) of 5.65 µM. For the same compound, the Kd ([2]; arithmetic mean, 100 µM, read-out: Kr arith) was 317 µM, the Kd ([2]; geometric mean, from Inh at −150 mV, 100 µM, read-out: Kr (resting state affinity)) was 317 µM and the Ki ([2]; geometric mean, from apparent affinity, 100 µM, read-out: Ki−Kapp (inactivated state affinity)) was 7.62 µM. The Ki ([2]; geometric mean, from shift of availability curve, 100 µM, read-out: Ki−ΔV1/2 (inactivated state affinity)) was 5.63 µM, the τon ([3]; 100 μM) was 3.99 s and the “UD (use-dependence of the inhibition)” value ([3]; 100 μM, 5 Hz train) was 1.14. For the same compound, the τoff ([3]; 100 μM) was 7.47 s, the “Rev (reversibility)” value ([3]; 100 μM) was 0.89 and the inhibition at 100 µM [3, 4] was 43%. For the same compound, the potency estimated from few doses [3, 5] was 132 µM.
In the case of CCc1nn(CCCN2CCN(c3cccc(Cl)c3)CC2)c(=O)n1CCOc1ccccc1 [NFZ, Nefazodone], the “ΔV1/2 (shift of availability curve)” value ([2]; 30 μM) is reported as −17.4 mV, the inhibition at 30 µM ([2]; HEK293, 30 µM, read-out: Inh (inhibited fraction) at holding potential −150 mV) is reported as 9% and the Ki ([2]; arithmetic mean, 30 µM, read-out: Ki-Kapp arith) is reported as 1.1 µM. For the same compound, the Ki ([2]; arithmetic mean, 30 µM, read-out: Ki-ΔV1/2 arith) was 1.05 µM, the Kd ([2]; geometric mean, from Inh at −150 mV, 30 µM, read-out: Kr (resting state affinity)) was 567 µM and the Ki ([2]; geometric mean, from apparent affinity, 30 µM, read-out: Ki−Kapp (inactivated state affinity)) was 0.92 µM. The Ki ([2]; geometric mean, from shift of availability curve, 30 µM, read-out: Ki−ΔV1/2 (inactivated state affinity)) was 0.87 µM, the plasma conc. ([1]; as printed in each cell) was 1.52 [48] µg/ml and the plasma conc. ([1]; as printed in the µg/ml cell) was 3.007 µM. For the same compound, the τon ([3]; 30 μM) was 8.75 s, the “UD (use-dependence of the inhibition)” value ([3]; 30 μM, 5 Hz train) was 1.22 and the τoff ([3]; 30 μM) was 10.93 s. For the same compound, the “Rev (reversibility)” value ([3]; 30 μM) was 0.51, the inhibition at 30 µM ([3]; HEK293, 30 μM, −90 mV holding potential, 5 Hz train, read-out: Inh (inhibited fraction)) was 39% and the potency estimated from few doses ([3]; HEK293, calculated from Inh at single concentration 30 μM, 5 Hz train) was 46.4 µM.
For O=C(CCNNC(=O)c1ccncc1)NCc1ccccc1 [NIA, Nialamide], the inhibition at 100 µM [3, 4] was 3% and the potency estimated from few doses [3, 5] was 3230 µM.
For CCN(CC)CCNC(=O)c1ccc(N)cc1 [PRC, Procainamide], the inhibition at 300 µM [3, 6] was 14% and the potency estimated from few doses [3, 7] was 2010 µM.
In the case of CN[C@H]1CC[C@@H](c2ccc(Cl)c(Cl)c2)c2ccccc21 [SRT, Sertraline], the plasma conc. ([1]; as printed in each cell) is given as 0.14 [44] µg/ml and the plasma conc. ([1]; as printed in the µg/ml cell) is given as 0.409 µM.
In the case of CCN(CC)CCNC(=O)c1cc(S(C)(=O)=O)ccc1OC [TIA, Tiapride], the plasma conc. ([1]; as printed in each cell) is given as 0.56 [51] µg/ml, the plasma conc. ([1]; as printed in the µg/ml cell) is given as 1.535 µM and the inhibition at 300 µM [3, 6] is given as 7%. For the same compound, the potency estimated from few doses [3, 7] was 3990 µM.
In the case of CC1(C)O[C@@H]2[C@@H](CO[C@@]3(COS(N)(=O)=O)OC(C)(C)O[C@@H]23)O1 [TOP, Topiramate], the plasma conc. ([1]; as printed in each cell) is listed as 5.5 [44] µg/ml, the plasma conc. ([1]; as printed in the µg/ml cell) is listed as 16.21 µM and the inhibition at 300 µM [3, 6] is listed as 7%. The potency estimated from few doses [3, 7] was 3990 µM.
In the case of O=c1n(CCCN2CCN(c3cccc(Cl)c3)CC2)nc2ccccn12 [TRZ, Trazodone], the plasma conc. ([1]; as printed in each cell) is listed as 1.5 [44] µg/ml and the plasma conc. ([1]; as printed in the µg/ml cell) is listed as 3.673 µM.
In the case of NS(=O)(=O)Cc1noc2ccccc12 [ZON, Zonisamide], the plasma conc. ([1]; as printed in each cell) is given as 28.4 [44] µg/ml, the plasma conc. ([1]; as printed in the µg/ml cell) is given as 133.82 µM and the inhibition at 300 µM [3, 6] is given as 9%. For the same compound, the potency estimated from few doses [3, 7] was 3030 µM.
